These results are taken from DBAASP.

Converted amounts (≈) assume the structure as drawn. Where only a bound is given, the exact number is not on record here.

Common to all, as to assay: ≥ marks a high value that may be exact or a test limit, other limits are often not marked, values filed in µg/mL are converted to µM
Experiment [1] has as its system Staphylococcus aureus 1.
Experiment [2] concerns Pseudomonas aeruginosa.
Experiment [3] concerns Staphylococcus aureus.
For experiment [4], the system named is Pseudomonas aeruginosa ATCC 27853.
Experiment [5] deals with Micrococcus luteus CCM 144.
Experiment [6] concerns Staphylococcus aureus ATCC 43300.
Experiment [7] relates to Candida albicans F7-39/IDE99.
Experiment [8] relates to Bacillus subtilis 168.
In experiment [9] the test system is Escherichia coli B.
Experiment [10] concerns Staphylococcus epidermidis.
For experiment [11], the system named is Fusarium graminearum PH-1.
The subject of experiment [12] is Staphylococcus aureus C623.
Experiment [13] concerns Escherichia coli ESBL 63103.
For experiment [14], the system named is Candida albicans C627.
Experiment [15] relates to Enterococcus faecium mic80.
The test system of experiment [16] is Pseudomonas aeruginosa LES400.
The subject of experiment [17] is Pseudomonas aeruginosa 213.
Experiment [18] relates to Staphylococcus aureus ATCC 25923.
For experiment [19], the system named is Pseudomonas aeruginosa H103.
The subject of experiment [20] is Staphylococcus epidermidis ATCC 12228.
For experiment [21], the system named is Escherichia coli ATCC 25322.
Experiment [22] relates to Klebsiella pneumoniae ATCC 700603.
For experiment [23], the system named is Stenotrophomonas maltophilia.
For experiment [24], the system named is Acinetobacter baumannii.
The test system of experiment [25] is Escherichia coli DH5alpha.
The subject of experiment [26] is Bacillus subtilis.
For experiment [27], the system named is Corynebacterium glutamicum ATCC 13032.
For experiment [28], the system named is Escherichia coli.
Experiment [29] relates to Micrococcus luteus.
Experiment [30] relates to Proteus vulgaris.
Experiment [31] concerns Streptococcus pyogenes.
The test system of experiment [32] is Salmonella typhimurium.

Regarding `CC[C@H](C)[C@H](NC(=O)CN)C(=O)N[C@@H](CC(C)C)C(=O)N[C@@H](CO)C(=O)N[C@@H](CO)C(=O)N[C@@H](CC(C)C)C(=O)N[C@@H](Cc1c[nH]c2ccccc12)C(=O)N[C@@H](CCCCN)C(=O)N[C@@H](CCCCN)C(=O)N[C@@H](CC(C)C)C(=O)N[C@@H](CCCCN)C(=O)N[C@@H](CCCCN)C(=O)N[C@@H](Cc1c[nH]c2ccccc12)C(=O)N[C@H](C(=O)N[C@@H](C)C(=O)N[C@@H](CCCCN)C(N)=O)[C@@H](C)CC` [GILSSLWKKLKKWIAK], the MIC (usually the lowest concentration that inhibits growth of the organism) in experiment [1] stood at 1.8 µM (≈ 3.42 µg/mL); in [2], 24 µM (≈ 45.6 µg/mL); in experiment [3] it was 2 µM (≈ 3.8 µg/mL); in experiment [4], 13 µM (≈ 24.7 µg/mL); in experiment [5], 3 µM (≈ 5.7 µg/mL); in experiment [6], 2.5 µM (≈ 4.75 µg/mL). The MIC was determined as 13 µM (≈ 24.7 µg/mL) in experiment [7], 7 µM (≈ 13.3 µg/mL) in [8], 2.5 µM (≈ 4.75 µg/mL) in [9] and 1.6 µM (≈ 3.04 µg/mL) in [10].

In the case of `CC[C@H](C)[C@H](NC(=O)[C@H](CCCCN)NC(=O)[C@H](CCCCN)NC(=O)[C@H](CC(C)C)NC(=O)[C@H](CCCCN)NC(=O)[C@H](CCCCN)NC(=O)[C@H](Cc1c[nH]c2ccccc12)NC(=O)[C@H](CC(C)C)NC(=O)[C@H](CO)NC(=O)[C@H](CO)NC(=O)[C@H](CC(C)C)NC(=O)[C@H](CCCCN)NC(=O)CN)C(=O)N[C@H](C(=O)N[C@@H](C)C(=O)N[C@@H](CCCCN)C(N)=O)[C@@H](C)CC` [GKLSSLWKKLKKIIAK], the MIC in experiment [1] amounted to 11 µM (≈ 20.2 µg/mL); in [2], 19 µM (≈ 35 µg/mL); in experiment [3] it was 27 µM (≈ 49.7 µg/mL); in experiment [4], 6.8 µM (≈ 12.5 µg/mL); in [5] it was 3 µM (≈ 5.52 µg/mL); in experiment [6], 26 µM (≈ 47.8 µg/mL). Further, the MIC in experiment [7] was no less than 34 µM; in experiment [8], 7 µM (≈ 12.9 µg/mL); in experiment [9], 20 µM (≈ 36.8 µg/mL); in experiment [10], 2.5 µM (≈ 4.6 µg/mL).

In turn, `NCC(=O)N1CCC[C@H]1C(=O)N[C@H]1CSSC[C@@H](C(=O)O)NC(=O)CNC(=O)[C@H](CO)NC(=O)[C@H](Cc2ccccc2)NC1=O` [GPCFSGC] came in with an MIC in [11] of no less than 48 µM.

Turning to `CC[C@H](C)[C@H](N)C(=O)N[C@@H](CCCCN)C(=O)N[C@@H](Cc1c[nH]c2ccccc12)C(=O)N[C@@H](CCCCN)C(=O)N[C@@H](CCCN=C(N)N)C(=O)N[C@@H](Cc1c[nH]c2ccccc12)C(=O)N[C@@H](Cc1c[nH]c2ccccc12)C(=O)N[C@@H](Cc1c[nH]c2ccccc12)C(=O)N[C@@H](CCCN=C(N)N)C(=O)O` [IKWKRWWWR], the MIC in experiment [12] is 22.1 µM (≈ 32 µg/mL); in [13], 22.1 µM (≈ 32 µg/mL); in experiment [14], 5.54 µM (≈ 8 µg/mL); in experiment [15], 22.1 µM (≈ 32 µg/mL); in experiment [16] it was no less than 88.6 µM; in experiment [17], no less than 88.6 µM. For the same compound, the MIC in experiment [18] is 22.1 µM (≈ 32 µg/mL); in experiment [19] it was no less than 88.6 µM.

For the compound `CC(C)C[C@H](NC(=O)[C@H](C)NC(=O)[C@H](CO)NC(=O)[C@H](CCCCN)NC(=O)[C@H](CC(C)C)NC(=O)[C@H](CC(C)C)NC(=O)[C@@H](N)CC(N)=O)C(=O)N[C@@H](CCCCN)C(=O)N[C@H](C(=O)N[C@H](C(=O)N[C@@H](CC(N)=O)C(=O)N[C@@H](CCCCN)C(=O)N[C@@H](CC(C)C)C(=O)N[C@@H](CC(C)C)C(=O)N[C@@H](C)C(=O)N[C@@H](C)C(=O)N[C@@H](CO)C(N)=O)C(C)C)[C@@H](C)O` [NLLKSALKTVNKLLAAS], the MIC in experiment [20] is 64 µM (≈ 114 µg/mL); in [21], no less than 32 µM; in [4], 64 µM (≈ 114 µg/mL); in experiment [18] it was 128 µM (≈ 228 µg/mL); in [22], 64 µM (≈ 114 µg/mL).

As for `CC(C)C[C@H](NC(=O)CNC(=O)[C@H](CC(N)=O)NC(=O)[C@@H](NC(=O)[C@@H](NC(=O)CNC(=O)[C@H](CC(C)C)NC(=O)[C@H](C)NC(=O)[C@H](CC(=O)O)NC(=O)[C@H](CC(N)=O)NC(=O)[C@H](CC(C)C)NC(=O)[C@H](CC(C)C)NC(=O)[C@@H](N)CC(N)=O)[C@@H](C)O)C(C)C)C(=O)N[C@@H](CC(C)C)C(=O)NCC(=O)N[C@@H](CCCN=C(N)N)C(=O)N[C@@H](CO)C(=O)O` [NLLNDALGTVNGLLGRS], the MIC is no less than 64 µM in experiment [21] and 32 µM (≈ 55.3 µg/mL) in experiment [18].

Turning to `C[C@H](NC(=O)[C@H](Cc1ccccc1)NC(=O)CNC(=O)[C@@H](N)CCCN=C(N)N)C(=O)N[C@@H](CCCN=C(N)N)C(=O)N[C@@H](CCCN=C(N)N)C(=O)O` [RGFARR], the MIC in [11] was no less than 96 µM.

Turning to `CC(=O)N[C@@H](CCCN=C(N)N)C(=O)N[C@@H](Cc1c[nH]c2ccccc12)C(=O)N[C@H](C(=O)N[C@@H](Cc1c[nH]c2ccccc12)C(=O)N[C@@H](CCCN=C(N)N)C(=O)NCC(=O)N[C@@H](CO)C(=O)NCC(=O)N[C@@H](CCCN=C(N)N)C(=O)N[C@@H](Cc1c[nH]c2ccccc12)C(=O)N[C@H](C(=O)N[C@@H](Cc1c[nH]c2ccccc12)C(=O)N[C@@H](CCCN=C(N)N)C(N)=O)[C@@H](C)O)[C@@H](C)O` [RWTWRGSGRWTWR], the MIC in experiment [23] was no less than 279 µM; in experiment [2], 69.8 µM (≈ 128 µg/mL); in [3], 4.47 µM (≈ 8.18 µg/mL); in experiment [24], 17.9 µM (≈ 32.7 µg/mL); in [25], 25 µM (≈ 45.8 µg/mL); in [26] it was 8.93 µM (≈ 16.4 µg/mL). In addition, the MIC in [27] is 0.794 µM (≈ 1.45 µg/mL); in experiment [28], 8.93 µM (≈ 16.4 µg/mL); in experiment [29] it was 8.93 µM (≈ 16.4 µg/mL).

In the case of `CC[C@H](C)[C@H](NC(=O)[C@@H](N)Cc1ccc(O)cc1)C(=O)N1CCC[C@H]1C(=O)N[C@@H](CCC(N)=O)C(=O)N1CCC[C@H]1C(=O)N[C@@H](CCCN=C(N)N)C(=O)N1CCC[C@H]1C(=O)N1CCC[C@H]1C(=O)N[C@@H](Cc1cnc[nH]1)C(=O)N1CCC[C@H]1C(=O)N[C@@H](CCCN=C(N)N)C(=O)N[C@@H](CC(C)C)C(=O)O` [YIPQPRPPHPRL], the MIC in [2] is 64 µM (≈ 94.1 µg/mL); in experiment [30], no less than 64 µM; in experiment [26] it was no less than 64 µM; in experiment [31] it was no less than 64 µM; in experiment [28] it was 64 µM (≈ 94.1 µg/mL); in experiment [32], 0.5 µM (≈ 0.735 µg/mL). Moreover, the MIC in experiment [10] was no less than 64 µM.
